Reference: US20150018369A1 (priority 2012, published 2015)

Assays:
[1] = Accelerating rotarod, acute toxicity in healthy mice; type: in vivo, mouse
Procedure: As an initial step to test the therapeutic efficacy of ST-11 in vivo, the pharmacokinetic profile and acme toxicity profile of ST-11 in healthy mice were determined. FIG. 13 illustrates an LC-MS chromatogram and calibration curve of ST-11 (a & 13). PK profile of ST-11 (c, d, e & f).

[2] = molecular target: T1, GPR124 (Homo sapiens, UniProt Q96PE1); test: ST-11 toxicity in T98 g cells after siRNA knock-down of GPR124; type: cell-based; conditions: ST-11 1 μM, siRNA targeting GPR124, viability after three days
T1 construct: endogenous in cells; host or cells: T98g human astrocytoma cells
T1 sequence (Q96PE1 34-1338): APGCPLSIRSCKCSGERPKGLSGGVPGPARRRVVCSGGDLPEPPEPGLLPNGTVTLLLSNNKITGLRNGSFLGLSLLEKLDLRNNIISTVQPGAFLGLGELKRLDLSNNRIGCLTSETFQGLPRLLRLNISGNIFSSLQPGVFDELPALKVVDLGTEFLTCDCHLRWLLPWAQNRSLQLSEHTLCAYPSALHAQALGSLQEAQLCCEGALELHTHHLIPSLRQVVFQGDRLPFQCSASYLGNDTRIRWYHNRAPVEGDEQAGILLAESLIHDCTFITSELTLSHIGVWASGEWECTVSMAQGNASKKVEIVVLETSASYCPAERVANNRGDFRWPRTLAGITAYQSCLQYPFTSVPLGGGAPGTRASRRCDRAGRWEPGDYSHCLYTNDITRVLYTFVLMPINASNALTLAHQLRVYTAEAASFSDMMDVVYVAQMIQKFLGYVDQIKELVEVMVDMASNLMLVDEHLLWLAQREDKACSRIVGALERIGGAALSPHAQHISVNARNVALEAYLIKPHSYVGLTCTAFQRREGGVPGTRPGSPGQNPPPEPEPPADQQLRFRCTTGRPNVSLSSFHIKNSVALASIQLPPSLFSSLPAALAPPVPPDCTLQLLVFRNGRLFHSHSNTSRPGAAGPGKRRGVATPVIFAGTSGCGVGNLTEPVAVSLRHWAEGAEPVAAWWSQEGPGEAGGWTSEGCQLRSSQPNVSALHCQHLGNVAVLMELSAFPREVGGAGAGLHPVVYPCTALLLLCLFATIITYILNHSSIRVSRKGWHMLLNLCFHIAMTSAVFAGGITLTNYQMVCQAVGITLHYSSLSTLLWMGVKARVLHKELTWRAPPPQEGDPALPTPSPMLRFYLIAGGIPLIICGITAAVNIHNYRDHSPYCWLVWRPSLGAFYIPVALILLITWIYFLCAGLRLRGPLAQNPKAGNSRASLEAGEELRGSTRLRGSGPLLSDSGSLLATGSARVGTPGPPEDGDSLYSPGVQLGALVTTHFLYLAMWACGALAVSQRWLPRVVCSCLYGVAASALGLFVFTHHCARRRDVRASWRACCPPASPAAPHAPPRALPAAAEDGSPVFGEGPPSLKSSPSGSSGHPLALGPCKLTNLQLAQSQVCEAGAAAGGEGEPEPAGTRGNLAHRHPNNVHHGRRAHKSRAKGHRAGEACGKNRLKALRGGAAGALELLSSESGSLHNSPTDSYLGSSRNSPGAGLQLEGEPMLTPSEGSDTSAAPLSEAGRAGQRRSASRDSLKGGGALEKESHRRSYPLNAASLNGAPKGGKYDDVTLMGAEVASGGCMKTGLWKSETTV
Procedure: To determine which of the gene candidate encodes for AI receptors, an siRNA approach is used to knock down each candidate individually to determine which one prevents the toxic effect of ST-11 and thus encodes for AI receptors. The prediction is that knocking down AI receptors prevents the cell death induced by ST-11. T98 g cells were treated with siRNA targeting each of the 39 GPCR gene candidates individually. The first experiment was designed to knock down each GPCR candidate liming a mixture of 3 siRNAs, and thus maximize genetic targeting efficacy. Thus, cells were incubated with siRNA mixtures and then treated with ST-11 (1 μM) and cell viability measured after three days. Only one mixture of siRNAs (that targeting GPR124) decreased the toxicity of ST-11. […] Two of the three siRNAs knocked-down GPR124 expression by more than 80% over 4 days (FIG. 5b). […] The killing effect induced by ST-11 is mediated by GPR124, an AI receptor.

[3] = system: mouse microglia in primary culture; test: Cell viability in mouse microglia; type: cell-based
[4] = system: T98 g cells; test: Cell viability assay (WST-1), SAR of AI compounds at inducing cell death; type: cell-based, human; conditions: Homo sapiens, T98G, 72 h
Procedure: Cells were plated media supplemented with 10% serum in 96-well plates (10^4 cells per wellI; 0.1 ml per well). Once they reached ˜70% confluence, they were rinsed with PBS and kept for an additional 24 his in media supplemented with 1% serum, at which time drugs or vehicle (DMSO, 0.1%, prepared in 10 μl serum-free media) were directly added to each well. After 3 days, cell viability was assessed using the Cell Proliferation Reagent WST-1 (Roche, Indianapolis, Ind.). Briefly, WST-1 reagent (10 μl) was added to each well for 3 hrs at 37° C. with 5% CO2 and WST-1 products were read at 450 nm using Packard SpectraCount™.
Because the strongest toxic effect of WIN55212-2 (ST-1) was measured in T98 g cells, these cells are used as readout to study the structure activity relationship (SAR) of AI compounds at inducing cell death. Table 2 provides the chemical structure, potency and efficacy of several AI compounds.

[5] = system: mouse microglia in primary culture; test: IP production in mouse microglia; type: cell-based

For CCn1c(C)c(C(=O)c2ccc(C)c3ccccc23)c2ccccc21 [ST-11], the “locomotor activity on an accelerating rotarod” value [1] was “does not influence locomotor activity”, the “ST-11-induced killing of T98 g cells when GPR124 mRNA expression is reduced” value [2] was “reduced” and the “cell viability in microglia” value [3] was “does not”. For the same compound, the EC50 [4] was 1300 nM and the IP production [5] was “does not stimulate or inhibit IP production”.
